Measurements from patent US10150737B2, “Compounds for controlling arthropods” (priority 2013, dated 2018).

Legend:
Spodoptera frugiperda = Spodoptera frugiperda - spray test; type: in vivo; conditions: caterpillars on maize leaf discs, after 7 days
Procedure: (§1) Solvent: 78.0 parts by weight of acetone and 1.5 parts by weight of dimethylformamide
(§2) Emulsifier: alkylaryl polyglycol ether
(§3) To produce an appropriate active ingredient formulation, 1 part by weight of active ingredient is dissolved using the specified parts by weight of solvent and made up with water containing an emulsifier concentration of 1000 ppm until the desired concentration is attained. To produce further test concentrations, the preparation is diluted with emulsifier-containing water.
Leaf discs of maize (Zea mays) are sprayed with an active ingredient formulation of the desired concentration and, after drying, populated with caterpillars of the armyworm (Spodoptera frugiperda).
After 7 days, efficacy in % is determined. 100% means that all the caterpillars have been killed; 0% means that no caterpillars have been killed.

Ctenocephalides felis = Ctenocephalides felis - oral test; type: in vivo; conditions: application rate 100 ppm in citrated cattle blood; after 2 days
Procedure: (§4) Solvent: dimethyl sulphoxide
For the purpose of producing an appropriate active ingredient formulation, 10 mg of active ingredient are mixed with 0.5 ml of dimethyl sulphoxide. Dilution with citrated cattle blood gives the desired concentration.
About 20 unfed adult cat fleas (Ctenocephalides felis) are placed into a chamber which is closed at the top and bottom with gauze. A metal cylinder whose bottom end is closed with parafilm is placed onto the chamber. The cylinder contains the blood/active ingredient preparation, which can be imbibed by the fleas through the parafilm membrane.
After 2 days, the kill in % is determined. 100% means that all of the fleas have been killed; 0% means that none of the fleas have been killed.

Boophilus microplus = Boophilus microplus - injection test; type: in vivo; conditions: application rate 20 μg/animal, injection into engorged adult female ticks, after 7 days
Procedure: as §4
To produce an appropriate active ingredient formulation, 10 mg of active ingredient are mixed with 0.5 ml of solvent and the concentrate is diluted with solvent to the desired concentration.
1 μl of the active ingredient solution is injected into the abdomen of 5 engorged adult female cattle ticks (Boophilus microplus). The animals are transferred into dishes and kept in a climate-controlled room.
Efficacy is assessed after 7 days by laying of fertile eggs. Eggs which are not visibly fertile are stored in a climate-controlled cabinet until the larvae hatch after about 42 days. An efficacy of 100% means that none of the ticks has laid any fertile eggs; 0% means that all the eggs are fertile.

Phaedon cochleariae = Phaedon cochleariae - spray test; type: in vivo; conditions: larvae on Chinese cabbage leaf discs, after 7 days
Procedure: as §1, §2, §3
Discs of Chinese cabbage leaves (Brassica pekinensis) are sprayed with an active ingredient formulation of the desired concentration and, after drying, populated with larvae of the mustard beetle (Phaedon cochleariae).
After 7 days, efficacy in % is determined. 100% means that all the beetle larvae have been killed; 0% means that no beetle larvae have been killed.

Lucilia cuprina = Lucilia cuprina test; type: in vivo; conditions: application rate 100 ppm; L1 larvae; after 2 days
Procedure: as §4
(§5) To produce an appropriate active ingredient formulation, 10 mg of active ingredient are mixed with 0.5 ml of dimethyl sulphoxide, and the concentrate is diluted with water to the desired concentration.
About 20 L1 larvae of the Australian sheep blowfly (Lucilia cuprina) are transferred into a test vessel containing minced horsemeat and the active ingredient preparation of the desired concentration.
After 2 days, the kill in % is determined. 100% means that all the larvae have been killed; 0% means that none of the larvae have been killed.

[1] = logP determination by HPLC on a reversed-phase column (C18); type: physicochemical; conditions: for logP^a): HPLC-MS method a); for log P: HPLC-MS
Tetranychus urticae = Tetranychus urticae - spray test, OP-resistant; type: in vivo; conditions: bean leaf discs, after 6 days
Procedure: as §1, §2, §3
Discs of bean leaves (Phaseolus vulgaris) infested by all stages of the greenhouse red spider mite (Tetranychus urticae) are sprayed with an active ingredient formulation of the desired concentration.
After 6 days, efficacy in % is determined. 100% means that all the spider mites have been killed; 0% means that none of the spider mites have been killed.

Musca domestica = Musca domestica test; type: in vivo; conditions: application rate 100 ppm; adult houseflies; after 2 days
Procedure: as §4, §5
Vessels containing a sponge treated with sugar solution and the active ingredient formulation of the desired concentration are populated with 10 adult houseflies (Musca domestica).
After 2 days, the kill in % is determined. 100% means that all of the flies have been killed; 0% means that none of the flies have been killed.

[2] = reversed-phase column (C18), Table I-T3

| SMILES | efficacy (Spodoptera frugiperda; application rate 500 g/ha) [%] | efficacy (kill) (Ctenocephalides felis) [%] | efficacy (laying of fertile eggs) (Boophilus microplus) [%] | efficacy (Phaedon cochleariae; application rate 500 g/ha) [%] | efficacy (kill) (Lucilia cuprina) [%] | logP^a) [1] | logP^a) [1, 2] | efficacy (Tetranychus urticae; application rate 500 g/ha) [%] | efficacy (Tetranychus urticae; application rate 100 g/ha) [%] | efficacy (Spodoptera frugiperda; application rate 100 g/ha) [%] | efficacy (Phaedon cochleariae; application rate 100 g/ha) [%] | efficacy (kill) (Musca domestica) [%] | pest or weed control at 0.02 mg (Boophilus microplus; Rhipicephalus microplus, 168 h, read-out: efficacy (laying of fertile eggs)) [%] | logP^a) ([1]; reversed-phase column (C18)) | log P [1, 2] | efficacy (Tetranychus urticae; application rate 20 g/ha) [%] |
| --- | --- | --- | --- | --- | --- | --- | --- | --- | --- | --- | --- | --- | --- | --- | --- | --- |
| Cc1cc(C(F)(C(F)(F)F)C(F)(F)F)cc(C)c1-n1cc(-c2cc(C(=O)NC3(C#N)CC3)c(F)cc2Cl)cn1 [I-T3-12] | 100 | 100 | 100 | 100 | 80 | 4.7 | 4.7 | – | – | – | – | – | – | – | – | – |
| CCc1cc(C(F)(C(F)(F)F)C(F)(F)F)ccc1-n1cc(-c2cccc(C(=O)NC3CC3)c2F)cn1 [I-T3-75] | 100 | – | 90 | 100 | 80 | 4.2 | 4.7 | 100 | – | – | – | – | – | – | – | – |
| CCc1cc(C(F)(C(F)(F)F)C(F)(F)F)ccc1-n1cc(-c2ccc(Cl)c(C(=O)NC3CSC3)c2)cn1 [I-T3-41] | – | 95 | 100 | – | 90 | 4.9 | 4.9 | – | 100 | 100 | 100 | – | – | – | – | – |
| CCc1cc(C(F)(C(F)(F)F)C(F)(F)F)cc(C)c1-n1cc(-c2cccc(C(=O)NC3(C#N)CC3)c2F)cn1 [I-T3-69] | 100 | 100 | 100 | 100 | 95 | 4.3 | 4.5 | 100 | – | – | – | – | – | – | – | – |
| CCc1cc(C(F)(C(F)(F)F)C(F)(F)F)cc(C)c1-n1cc(-c2ccc(Cl)c(C(=O)NCC(F)(F)F)c2)cn1 [I-T3-45] | 100 | 95 | 100 | 100 | 100 | 5.0 | 5.0 | 100 | – | – | – | – | – | – | – | – |
| O=C(NC1CSC1)c1cc(-c2cnn(-c3ccc(C(F)(C(F)(F)F)C(F)(F)F)cc3OC(F)(F)F)c2)ccc1Cl [I-T3-37] | – | 90 | 100 | 100 | 100 | 4.9 | 4.9 | – | – | – | – | – | – | – | – | – |
| Cc1cc(C(F)(C(F)(F)F)C(F)(F)F)cc(C)c1-n1cc(-c2ncc(Cl)c(C(=O)NC3CC3)n2)cn1 [I-T3-121, 5-chloro-N-cyclopropyl-2-[1-[2,6-dimethyl-4-[1,2,2,2-tetrafluoro-1-(trifluoromethyl)ethyl]phenyl]pyrazol-4-yl]pyrimidine-4-carboxamide] | – | – | – | – | – | – | – | – | – | – | – | 80 | 80 | – | – | – |
| Cc1cc(C(F)(C(F)(F)F)C(F)(F)F)cc(C)c1-n1cc(-c2cc(C(=O)NC3CC3)cc(C(F)(F)F)c2)cn1 [I-T3-15] | – | 90 | 100 | 100 | 100 | 4.9 | 4.9 | – | – | – | – | – | – | – | – | – |
| Cc1cc(C(F)(C(F)(F)F)C(F)(F)F)cc(C)c1-n1cc(-c2cnc(C3CC3)c(C(=O)NC3CC3)c2)cn1 [I-T3-140] | – | 100 | 100 | – | 100 | – | – | – | – | 100 | 100 | – | – | 4.2 | 4.2 | – |
| CCc1cc(C(F)(F)C(F)(F)F)cc(C)c1-n1cc(-c2ccc(Cl)c(C(=O)NCC(F)(F)F)c2)cn1 [I-T3-82] | – | 95 | 100 | – | 100 | 4.0 | 4.0 | – | 100 | 100 | 100 | – | – | – | – | – |
| Cn1ccc(NC(=O)c2cc(-c3cnn(-c4c(Cl)cc(C(F)(F)F)cc4Cl)c3)cnc2Cl)n1 [I-T3-146] | – | 100 | 100 | – | 90 | – | – | – | 100 | – | – | – | – | 2.8 | 2.8 | – |
| CCc1cc(C(F)(C(F)(F)F)C(F)(F)F)ccc1-n1cc(-c2cccc(C(=O)NC3(C#N)CC3)c2F)cn1 [I-T3-74] | 100 | – | 100 | 100 | 90 | 4.1 | 4.5 | – | 90 | – | – | – | – | – | – | – |
| N#CC1(NC(=O)c2cc(-c3cnn(-c4ncc(C(F)(F)F)cc4Cl)c3)ccc2Cl)CC1 [I-T3-59] | – | 100 | 100 | – | 100 | 3.1 | 3.1 | – | – | – | 100 | – | – | – | – | – |
| Cc1cc(C(F)(C(F)(F)F)C(F)(F)F)cc(C)c1-n1cc(-c2cccc(C(=O)NC3(C#N)CC3)c2F)cn1 [I-T3-10] | 100 | 100 | 100 | 100 | 100 | 4.2 | 4.2 | 100 | – | – | – | – | – | – | – | – |
| CCc1cc(C(F)(C(F)(F)F)C(F)(F)F)cc(C)c1-n1cc(-c2cccc(C(=O)NC3CC3)c2F)cn1 [I-T3-70] | 100 | 95 | 100 | 100 | 100 | 4.3 | 4.7 | 90 | – | – | – | – | – | – | – | – |
| Cc1cc(C(F)(C(F)(F)F)C(F)(F)F)cc(C)c1-n1cc(-c2cc(C(=O)NC3(C#N)CC3)cc(C(F)(F)F)c2)cn1 [I-T3-18] | 100 | 100 | 100 | 100 | 100 | 4.7 | 4.7 | – | – | – | – | – | – | – | – | – |
| CCc1cc(C(F)(C(F)(F)F)C(F)(F)F)ccc1-n1cc(-c2cncc(C(=O)NC3(C#N)CC3)c2)cn1 [I-T3-78] | 100 | 100 | 100 | 100 | 100 | 3.2 | 3.8 | 100 | – | – | – | – | – | – | – | – |
| N#CC1(NC(=O)c2cc(-c3cnn(-c4c(F)cc(C(F)(F)F)cc4F)c3)ccc2Cl)CC1 [I-T3-49] | – | 100 | 100 | – | 100 | 3.2 | 3.2 | – | – | – | 100 | – | – | – | – | 100 |
| CCc1cc(C(F)(F)C(F)(F)F)cc(C)c1-n1cc(-c2ccc(Cl)c(C(=O)NC3CSC3)c2)cn1 [I-T3-83] | – | 95 | 100 | – | 100 | 4.6 | 4.6 | – | 100 | 100 | 100 | – | – | – | – | – |
| CCc1cc(C(F)(C(F)(F)F)C(F)(F)F)ccc1-n1cc(-c2ccc(Cl)c(C(=O)NCC(F)(F)F)c2)cn1 [I-T3-40] | – | 100 | 100 | – | 100 | 4.9 | 4.9 | – | – | 100 | 100 | – | – | – | – | – |
